Patent US5288709A, “Erythromycin derivatives” (priority 1991, dated 1994)
Converted amounts (≈) assume the structure as drawn. Like-named read-outs stand apart in the source and are kept apart here.

Experiments:
[1] = system: Streptococcus pneumoniae (ATCC 6303); assay: In-vivo acute mouse protection assay; parameters: species or system Streptococcus pneumoniae; female Swiss albino mice; details: dosed 1 and 5 h post-infection, observed 7 days, read-out: ED50
Protocol: (§1) An acute mouse protection test was conducted on ten mice with each of three concentrations of selected compounds of the invention. Each concentration was a four-fold dilution of the previous concentration. The initial concentration will vary with the microorganism with which the mouse is challenged.
(§2) The acute mouse protection test was conducted on female, Swiss albino mice, 18-20 grams in weight. […] To check the potency of the inoculum, a titration of the indicated test organism was carried out in control animals. The titration determines the LD50 for a particular microorganism. The treatment groups of animals were dosed orally, by gavage, or subcutaneously with the test compounds at 1 and 5 hours post-infection and observed for 7 days. The ED50 were calculated using the mortality data collected.

[2] = Pharmacokinetic evaluation in dogs after a 10 mg/kg dose; details: dog, plasma; for half-life: t1/2 (biological half life); for bioavailability: % ABS (percent absorbance), from AUC (absolute bioavailability); for Cmax: Cmax (maximum concentration in blood); for Tmax: Tmax (time to achieve maximum concentration in blood)
[3] = system: Streptococcus agalactiae CMX 508; assay: In-vitro antimicrobial activity primary screen (agar dilution MIC); assay type: cell-based; details: Streptococcus agalactiae, CMX508, 24 h, BHI agar, 20-24 h
Procedure, shortened: (§3)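 BHI agar dilution MIC, 35-37° C overnight (20-24 h), replicator inoculation at 1:100 or 1:10 for slow strains. Endpoint: no growth, slight haze or sparse colonies versus compound-free plate.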

Escherichia coli DC-2 = assay: as above; assay type: cell-based; details: Escherichia coli, DC2, 24 h, Escherichia coli DC-2; BHI agar, 20-24 h
Procedure, shortened: as §3

[4] = system: Streptococcus pyrogenes 2548 INDUC; assay: as above; assay type: cell-based; details: Streptococcus, 2548INDUC, 24 h, BHI agar, 20-24 h
Procedure, shortened: as §3

Escherichia coli SS = assay: as above; assay type: cell-based; details: Escherichia coli, 24 h, BHI agar, 20-24 h
Procedure, shortened: as §3

[5] = system: Pseudomonas aeruginosa A5007; assay: as above; assay type: cell-based; details: Pseudomonas aeruginosa, A5007, 24 h
Procedure, shortened: as §3

[6] = system: Providencia stuartii CMX 640; assay: as above; assay type: cell-based; details: Providencia stuartii, CMX640, 24 h
Procedure, shortened: as §3

Pseudomonas cepacia 2961 = assay: as above; assay type: cell-based; details: Burkholderia cepacia, 2961, 24 h, BHI agar, 20-24 h
Procedure, shortened: as §3

Escherichia coli H560 = assay: as above; assay type: cell-based; details: Escherichia coli, H560, 24 h, Escherichia coli H560; BHI agar, 20-24 h
Procedure, shortened: as §3

[7] = system: Streptococcus pyrogenes EES61; assay: as above; assay type: cell-based; details: BHI agar, 20-24 h, read-out: MIC
Procedure, shortened: as §3

[8] = system: Staphylococcus aureus 45 RAR2; assay: as above; assay type: cell-based; details: Staphylococcus aureus, 45RAR2, 24 h, BHI agar, 20-24 h
Procedure, shortened: as §3

[9] = system: Pseudomonas aeruginosa BMH10; assay: as above; assay type: cell-based; details: Pseudomonas aeruginosa, BMH10, 24 h, BHI agar, 20-24 h
Procedure, shortened: as §3

[10] = system: Pseudomonas aeruginosa K799/61; assay: as above; assay type: cell-based; details: Pseudomonas aeruginosa K799/61; BHI agar, 20-24 h; read-out: MIC
Procedure, shortened: as §3

[11] = system: Staphylococcus aureus ATCC 6538P; assay: as above; assay type: cell-based; details: Staphylococcus aureus, ATCC6538P, 24 h, BHI agar, 20-24 h
Procedure, shortened: as §3

[12] = system: Staphylococcus epidermidis 3519; assay: as above; assay type: cell-based; details: BHI agar, 20-24 h, read-out: MIC
Procedure, shortened: as §3

Staphylococcus aureus 45 = assay: as above; assay type: cell-based; details: BHI agar, 20-24 h, read-out: MIC
Procedure, shortened: as §3

Acinetobacter SP CMX 669 = assay: as above; assay type: cell-based; details: Acinetobacter, SPCMX669, 24 h, Acinetobacter SP CMX 669; BHI agar, 20-24 h
Procedure, shortened: as §3

[13] = system: Micrococcus luteus ATCC 4698; assay: as above; assay type: cell-based; details: Micrococcus luteus, ATCC4698, 24 h, BHI agar, 20-24 h
Procedure, shortened: as §3

Escherichia coli JUHL = assay: as above; assay type: cell-based; details: Escherichia coli, 24 h, Escherichia coli JUHL; BHI agar, 20-24 h
Procedure, shortened: as §3

[14] = system: Micrococcus luteus ATCC 9341; assay: as above; assay type: cell-based; details: Micrococcus luteus, ATCC9341, 24 h, BHI agar, 20-24 h
Procedure, shortened: as §3

[15] = system: Enterobacter aerogenes ATCC 13048; assay: as above; assay type: cell-based; details: Klebsiella aerogenes, ATCC13048, 24 h, Enterobacter aerogenes ATCC 13048; BHI agar, 20-24 h
Procedure, shortened: as §3

[16] = system: Enterococcus faecium ATCC 8043; assay: as above; assay type: cell-based; details: Enterococcus faecium, ATCC8043, 24 h
Procedure, shortened: as §3

[17] = system: Staphylococcus aureus A5177; assay: as above; assay type: cell-based; details: Staphylococcus aureus, A5177, 24 h, Staphylococcus aureus A5177; BHI agar, 20-24 h
Procedure, shortened: as §3

[18] = system: Pseudomonas aeruginosa K799/WT; assay: as above; assay type: cell-based; details: Pseudomonas aeruginosa, K799/WT, 24 h, Pseudomonas aeruginosa K799/WT; BHI agar, 20-24 h
Procedure, shortened: as §3

[19] = system: Streptococcus pyogenes C-203; assay: In-vivo acute mouse protection assay; parameters: species or system Streptococcus pyogenes; female Swiss albino mice; details: dosed 1 and 5 h post-infection, observed 7 days
Protocol: as §1, §2

[20] = po, oral 10 mg/kg, HPLC (parent drug)
[21] = po, oral 10 mg/kg, microbiological assay

SMILES: CC[C@H]1OC(=O)[C@H](C)[C@@H](O[C@H]2C[C@@](C)(OC)[C@@H](O)[C@H](C)O2)[C@H](C)[C@@H](O[C@@H]2O[C@H](C)C[C@H](N(C)C)[C@H]2O)[C@](C)(O)C[C@@H](C)[C@@H]2O[C@@]1(C)[C@@H](O)[C@H]2C [Example 4, (9S,11S)-9-Deoxo-12-deoxy-9,12-epoxyerythromycin A]
- ED50 ([1]; ATCC6303, 168 h, oral): 20.4 mg/kg
- ED50 ([1]; ATCC6303, sc, 168 h, subcutaneous): 1.3 mg/kg
- half-life ([2]; iv, IV 10 mg/kg, HPLC (parent drug)): 2.9 h
- half-life ([2]; iv, IV 10 mg/kg, microbiological assay): 2.9 h
- bioavailability [2, 20]: 69%
- bioavailability [2, 21]: 75%
- Cmax [2, 20]: 3900 ng/mL
- Cmax [2, 21]: 4300 ng/mL
- Tmax [2, 20]: 0.25 h
- Tmax [2, 21]: 0.4 h
- half-life [2, 20]: 2.9 h
- half-life [2, 21]: 2.7 h
- MIC [3]: 0.05 µg/mL (≈ 0.0696 µM)
- MIC (Escherichia coli DC-2): 50 µg/mL (≈ 69.6 µM)
- MIC [4]: 3.1 µg/mL (≈ 4.32 µM)
- MIC (Escherichia coli SS): 0.2 µg/mL (≈ 0.279 µM)
- MIC [5]: > 100 µg/mL
- MIC [6]: > 100 µg/mL
- MIC (Pseudomonas cepacia 2961): > 100 µg/mL
- MIC (Escherichia coli H560): 25 µg/mL (≈ 34.8 µM)
- MIC [7]: 0.01 µg/mL (≈ 0.0139 µM)
- MIC [8]: 0.39 µg/mL (≈ 0.543 µM)
- MIC [9]: 50 µg/mL (≈ 69.6 µM)
- MIC [10]: 0.39 µg/mL (≈ 0.543 µM)
- MIC [11]: 0.2 µg/mL (≈ 0.279 µM)
- MIC [12]: 0.2 µg/mL (≈ 0.279 µM)
- MIC (Staphylococcus aureus 45): 0.2 µg/mL (≈ 0.279 µM)
- MIC (Acinetobacter SP CMX 669): 3.1 µg/mL (≈ 4.32 µM)
- MIC [13]: 0.1 µg/mL (≈ 0.139 µM)
- MIC (Escherichia coli JUHL): 25 µg/mL (≈ 34.8 µM)
- MIC [14]: 0.05 µg/mL (≈ 0.0696 µM)
- MIC [15]: 50 µg/mL (≈ 69.6 µM)
- MIC [16]: 0.1 µg/mL (≈ 0.139 µM)
- MIC [17]: 3.1 µg/mL (≈ 4.32 µM)
- MIC [18]: 100 µg/mL (≈ 139 µM)
- ED50 ([19]; C203, 168 h, oral): 20 mg/kg
- ED50 ([19]; C203, sc, 168 h, subcutaneous): 3.3 mg/kg
